Experimental data from patent US8541377B2, “Optimized dengue virus entry inhibitory peptide (DN81)” (Florida Gulf Coast University, priority 2007, dated 2013).
Residues, ends and D or L forms follow the SMILES beside them.

Tested on: LLCMK-2 cells
Details: confluent LLCMK-2 monolayers; concentration ranges that showed viral inhibition; vs medium only controls, p>0.05; FIG. 4
Protocol: The cytotoxicity of the chemistries was measured by monitoring mitochondrial reductase activity using the TACS™ MTT cell proliferation assay (R&D Systems, Inc., Minneapolis, Minn.) according to the manufacturer's instructions. Dilutions of chemistries in serum-free DMEM were added to confluent monolayers of LLCMK-2 cells in 96-well plates for 1 h at 37° C., similar to the focus forming inhibition assays, and subsequently incubated at 37° C. with 5% (v/v) CO2 for 24 h. Absorbance at 560 nm was measured using a Tecan GeniosPro plate reader (Tecan US, Durham, N.C.).

SMILES: CSCC[C@H](NC(=O)[C@H](Cc1c[nH]c2ccccc12)NC(=O)[C@@H](N)CCCNC(=N)N)C(=O)N[C@H](C(=O)N[C@@H](Cc1c[nH]c2ccccc12)C(=O)N[C@@H](CCCNC(=N)N)C(=O)N[C@@H](Cc1c[nH]cn1)C(=O)N[C@@H](Cc1c[nH]c2ccccc12)C(=O)N[C@@H](Cc1ccccc1)C(=O)N[C@@H](Cc1c[nH]cn1)C(=O)N[C@@H](CCCNC(=N)N)C(=O)N[C@@H](CC(C)C)C(=O)N[C@@H](CCCNC(=N)N)C(=O)N[C@@H](CC(C)C)C(=O)N1CCC[C@H]1C(=O)N[C@@H](Cc1ccc(O)cc1)C(=O)N[C@@H](CC(N)=O)C(=O)N1CCC[C@H]1C(=O)NCC(=O)N[C@@H](CCCCN)C(=O)N[C@@H](CC(N)=O)C(=O)N[C@@H](CCCCN)C(=O)N[C@@H](CCC(N)=O)C(=O)N[C@@H](CC(N)=O)C(=O)N[C@@H](CCC(N)=O)C(=O)N[C@@H](CCC(N)=O)C(=O)N[C@@H](Cc1c[nH]c2ccccc12)C(=O)N1CCC[C@H]1C(=O)O)C(C)C [DN81] (H-RWMVWRHWFHRLRLPYNPGKNKQNQQWP-OH)
- toxicity (mitochondrial reductase activity of target cells): not due to toxicity
